Assay results reported in patent US20160368872A1, “COMPOUNDS AND METHODS FOR TREATING CANCERS” (HEALTH RESEARCH, INC., priority 2013, published 2016).

Key:
Experiment in all cases: inhibition of growth of cell lines (IC50 categories)
Type in all cases: cell-based
[1] = test system: PC3; settings: Homo sapiens, PC-3
Experimental: (§1) This example provides a table (below) of the compounds of the present disclosure and their activity towards four different cell lines (i.e., CWR22R, Hela, PC3, and MDA-MB-231). The IC50 for inhibition of growth is divided into 4 categories: A<1 μM, B 1-5 μM, […], D>20 μM.
(§2) All compounds were tested for toxicity using 4 cells lines, target cells-CWR22R and non-target cells, Hela, PC3 and MDA-MB-231 (FIGS. 1A-F).

[2] = test system: CWR22R; settings: Homo sapiens, 22Rv1
Experimental: as §1, §2

[3] = test system: MDA-MB-231; settings: Homo sapiens
Experimental: as §1, §2

[4] = test system: Hela; settings: Homo sapiens
Experimental: as §1, §2

IC50 [1] [µM] | IC50 [3] [µM] | IC50 [4] [µM] | Structure (SMILES) | IC50 [2] [µM]
> 20 | > 20 | > 20 | CCCn1c2ccccc2c2c3c(ccc21)C(=O)CC3 [Compound 1-1, 6-Propyl-1,2-dihydro-6H-cyclopenta[c]carbazol-3-one] | < 1
5 to 20 | 5 to 20 | 5 to 20 | Cn1c2ccccc2c2c3c(ccc21)C(=O)CC3 [Compound 1-3] | 5 to 20
> 20 | > 20 | > 20 | CCCn1c2ccccc2c2c3c(ccc21)C(=O)CCC3 [Compound 1-4] | < 1
> 20 | > 20 | > 20 | CCCn1c2ccccc2c2c3c(ccc21)C(=O)CO3 [Compound 1-6] | < 1
> 20 | > 20 | > 20 | O=C1COc2c1ccc1c2c2ccccc2n1CCCF [Compound 1-7] | < 1
> 20 | > 20 | > 20 | CCCn1c2ccccc2c2c3c(ccc21)C(=O)CCO3 [Compound 1-8] | < 1
> 20 | > 20 | > 20 | CCCn1c2ccccc2c2c3c(ccc21)C(=O)NC3 [Compound 1-10, 6-propyl-1,2-dihydro-6H-pyrrolo[3,4-c]carbazol-3-one] | < 1
> 20 | > 20 | > 20 | O=C1NCc2c1ccc1c2c2ccccc2n1CCCF [Compound 1-11] | < 1
> 20 | > 20 | > 20 | O=C1Cc2ccc3c(c2CN1)c1ccccc1n3CCCF [Compound 1-12] | < 1
> 20 | > 20 | > 20 | O=C1CCc2c1ccc1c2c2c(F)cccc2n1CCCF [Compound 1-14] | < 1
> 20 | > 20 | > 20 | CC(=O)c1ccc2c(c1)c1c3c(ccc1n2CCCF)C(=O)CC3 [Compound 1-15] | 1 to 5
> 20 | > 20 | > 20 | O=C1CCc2c1ccc1c2c2cc(Br)ccc2n1CCCF [Compound 1-16] | 1 to 5
> 20 | > 20 | > 20 | CCCn1c2ccccc2c2c3c(ccc21)C(=O)NCC3 [Compound 2-1, 7-Propyl-2,3-dihydro-1H,7H-pyrido[3,4-c]carbazol-4-one] | < 1
> 20 | > 20 | > 20 | O=C1NCCc2c1ccc1c2c2ccccc2n1CCCF [Compound 2-2] | < 1
> 20 | 5 to 20 | 5 to 20 | O=C1NCCCc2c1ccc1c2c2ccccc2n1CCCF [Compound 2-3] | 1 to 5
5 to 20 | > 20 | 5 to 20 | O=C1CCCc2c(ccc3c2c2ccccc2n3CCCF)N1 [Compound 2-4] | < 1
> 20 | > 20 | > 20 | CCCn1c2ccccc2c2c3cc[nH]c(=O)c3ccc21 [Compound 3-1, 7-Propyl-3H,7H-pyrido[3,4-c]carbazol-4-one] | < 1
> 20 | > 20 | > 20 | O=c1[nH]ccc2c1ccc1c2c2ccccc2n1CCCF [Compound 3-2] | < 1
> 20 | 5 to 20 | > 20 | CCCn1c2ccccc2c2c3occc(=O)c3ccc21 [Compound 3-3] | < 1
> 20 | 1 to 5 | 5 to 20 | CN1Cc2c(ccc3c2c2ccccc2n3CCCF)C1=O [Compound 4-2] | < 1
5 to 20 | 5 to 20 | 5 to 20 | O=c1c2ccc3c(c2ccn1CCN1CCCC1)c1ccccc1n3CCCF [Compound 4-4] | 5 to 20

IC50 [1] [µM] | IC50 [3] [µM] | IC50 [4] [µM] | Structure (SMILES) | IC50 [2] [µM]
– | > 20 | > 20 | CCCn1c2ccccc2c2c3nc[nH]c(=O)c3ccc21 [Compound 5-1, 7-Propyl-3H-pyrimido[5,4-c]carbazol-4(7H)-one] | < 1
> 20 | > 20 | > 20 | O=c1[nH]cnc2c1ccc1c2c2ccccc2n1CCCF [Compound 5-2] | < 1
> 20 | > 20 | > 20 | O=c1[nH]ncc2c1ccc1c2c2ccccc2n1CCCF [Compound 5-3] | < 1
> 20 | > 20 | > 20 | CCCn1c2ccccc2c2c3c(ccc21)CC(=O)N3C [Compound 6-1, 1-Methyl-6-propyl-3,6-dihydro-1H-pyrrolo[3,2-c]carbazol-2-one] | < 1
5 to 20 | 5 to 20 | 5 to 20 | CCCn1c2ccccc2c2c3c(ccc21)C(O)CC3 (stereo not drawn) [Compound 7-1, 6-Propyl-1,2,3,6-tetrahydro-cyclopenta[c]carbazol-3-ol] | < 1
> 20 | > 20 | > 20 | CCCn1c2ccccc2c2c3c(ccc21)CCC3 [Compound 7-2, 6-Propyl-1,2,3,6-tetrahydro-cyclopenta[c]carbazole] | 1 to 5
> 20 | 5 to 20 | 5 to 20 | O=c1[nH]c2ccc3c(c4ccccc4n3CCCF)c2o1 [Compound 8-2] | < 1
> 20 | > 20 | > 20 | N#Cc1cccc2c1c1c3cc[nH]c(=O)c3ccc1n2CCCF [Compound 8-3] | 1 to 5
5 to 20 | 5 to 20 | > 20 | CCCn1c2cccnc2c2c3c(ccc21)C(=O)CC3 [Compound 10-1, 6-Propyl-1,2-dihydro-6H-6,10-diazacyclopenta[c]fluoren-3-one] | 1 to 5
5 to 20 | 5 to 20 | > 20 | O=C1CCc2c1ccc1c2c2ncccc2n1CCCF [Compound 10-2] | < 1
> 20 | > 20 | > 20 | CCCn1c2cccnc2c2c3c(ccc21)C(=O)NC3 [Compound 10-5] | 1 to 5
> 20 | > 20 | > 20 | O=C1NCc2c1ccc1c2c2ncccc2n1CCCF [Compound 10-6, 6-(3-fluoropropyl)-1,2-dihydro-6H-2,6,10-triazacyclopenta[c]fluoren-3-one] | < 1
> 20 | 5 to 20 | > 20 | Cn1ncc2c(ccc3c2c2ncccc2n3CCCF)c1=O [Compound 10-7] | < 1
> 20 | > 20 | > 20 | CCCn1c2cccnc2c2c3ccn(C)c(=O)c3ccc21 [Compound 10-9] | < 1
> 20 | > 20 | > 20 | Cn1ccc2c(ccc3c2c2ncccc2n3CCCF)c1=O [Compound 10-10] | < 1
> 20 | > 20 | > 20 | CCCn1c2cccnc2c2c3c(ccc21)C(=O)NCC3 [Compound 11-1, 7-Propyl-1,2,3,7-tetrahydro-3,7,11-triazabenzo[c]fluoren-4-one] | 5 to 20
> 20 | > 20 | > 20 | O=C1NCCOc2c1ccc1c2c2ncccc2n1CCCF [Compound 11-3] | 1 to 5
> 20 | > 20 | > 20 | CCCn1c2cccnc2c2c3cc[nH]c(=O)c3ccc21 [Compound 12-1, 7-Propyl-3,7-dihydro-3,7,11-triazabenzo[c]fluoren-4-one] | 5 to 20
> 20 | > 20 | > 20 | O=c1[nH]ccc2c1ccc1c2c2ncccc2n1CCCF [Compound 13-1, 7-(3-Fluoropropyl)-3,7-dihydro-3,7,11-triaza-benzo[c]fluoren-4-one] | < 1
> 20 | > 20 | > 20 | O=C1COc2c(ccc3c2c2ncccc2n3CCCF)N1 [Compound 13-2] | 5 to 20
> 20 | 5 to 20 | > 20 | CN1Cc2c(ccc3c2c2ncccc2n3CCCF)C1=O [Compound 14-1, 6-(3-Fluoropropyl)-2-methyl-1,2-dihydro-6H-2,6,10-triazacyclopenta[c]fluoren-3-one] | < 1

Structure (SMILES) | IC50 [1] [µM] | IC50 [3] [µM] | IC50 [4] [µM] | IC50 [2] [µM]
O=C1CCCc2c1ccc1c2c2ccccc2n1CCCF [Compound 1-5] | > 20 | > 20 | > 20 | < 1
O=C1CCOc2c1ccc1c2c2ccccc2n1CCCF [Compound 1-9] | > 20 | > 20 | > 20 | < 1
O=C1NCCOc2c1ccc1c2c2ccccc2n1CCCF [Compound 2-5] | > 20 | > 20 | > 20 | < 1
CCCn1c2ccccc2c2c3c(ccc21)C(=O)N(C)C3 [Compound 4-1, 2-Methyl-6-propyl-1,2-dihydro-6H-pyrrolo[3,4-c]carbazol-3-one] | > 20 | < 1 | 1 to 5 | < 1
O=c1c2ccc3c(c2ccn1CCO)c1ccccc1n3CCCF [Compound 4-3] | > 20 | > 20 | > 20 | 5 to 20
NC(=O)c1cccc2c1c1c3cc[nH]c(=O)c3ccc1n2CCCF [Compound 8-4] | > 20 | > 20 | > 20 | 5 to 20
O=C1NCCc2c1ccc1c2c2ncccc2n1CCCF [Compound 11-2] | > 20 | > 20 | > 20 | < 1
